Source: the supplement of paper PMC11451515

Assays:
SEM cells [1] = experiment: cell viability relative to DMSO control; higher = less cytotoxic; details: 48 h
Summary of the method: (§1)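 NOMO1, SEM and P12-Ichikawa leukemia cells spent at least four passages adapting to each medium before use. They were seeded at 500 cells/well (NOMO1, SEM) or 1000 cells/well (P12-Ichikawa) in 5 μl in 1536-well plates and pin-dosed with library compounds in DMSO at 11 threefold steps from 47 μM down to 0.79 nM. After 48 h at 37°C, CellTiter-Glo One luminescence was read. Viability is reported as a percentage of the DMSO wells on each plate, with cell-free wells as background.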

NOMO1 [2] = experiment: AUC of viability dose-response curve (% viability x log10 dose units); higher = less sensitive; details: 48 h
Summary of the method: (§2)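 Library compounds in DMSO were applied for 48 h at 37°C at 11 threefold doses (47 μM to 0.79 nM) to medium-adapted leukemia cells in 1536-well plates holding 500 or 1000 cells/well. Luminescence from CellTiter-Glo One was normalised plate by plate against DMSO and cell-free wells. Area under the curve came from trapezoidal integration of a log-logistic fit, after scaling curves that rose above full viability and discarding those that failed quality control. The fit had four parameters and used log10 doses.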

P12-Ichikawa [3] = experiment: as above; details: 48 h
Summary of the method: as §2

SEM cells [4] = experiment: as above; details: 48 h
Summary of the method: as §2

NOMO1 [5] = experiment: cell viability relative to DMSO control; higher = less cytotoxic; details: RPMI 5 mM glucose + 10% FBS, 48 h
Summary of the method: as §1

P12-Ichikawa [6] = experiment: as above; details: 48 h
Summary of the method: as §1

[7] = HPLM + 10% dialyzed FBS, 0.000781 µM
[8] = HPLM + 10% dialyzed FBS, 0.00234 µM
[9] = HPLM + 10% dialyzed FBS, 0.00702 µM
[10] = HPLM + 10% dialyzed FBS, 0.0211 µM
[11] = HPLM + 10% dialyzed FBS, 0.0632 µM
[12] = HPLM + 10% dialyzed FBS, 0.19 µM
[13] = HPLM + 10% dialyzed FBS, 0.569 µM
[14] = HPLM + 10% dialyzed FBS, 1.71 µM
[15] = HPLM + 10% dialyzed FBS, 5.12 µM
[16] = HPLM + 10% dialyzed FBS, 15.4 µM
[17] = HPLM + 10% dialyzed FBS, 46.1 µM
[18] = RPMI 5 mM glucose + 10% dialyzed FBS
[19] = RPMI 5 mM glucose + 10% dialyzed FBS, 0.000781 µM
[20] = RPMI 5 mM glucose + 10% dialyzed FBS, 0.00234 µM
[21] = RPMI 5 mM glucose + 10% dialyzed FBS, 0.00702 µM
[22] = RPMI 5 mM glucose + 10% dialyzed FBS, 0.0211 µM
[23] = RPMI 5 mM glucose + 10% dialyzed FBS, 0.0632 µM
[24] = RPMI 5 mM glucose + 10% dialyzed FBS, 0.19 µM
[25] = RPMI 5 mM glucose + 10% dialyzed FBS, 0.569 µM
[26] = RPMI 5 mM glucose + 10% dialyzed FBS, 1.71 µM
[27] = RPMI 5 mM glucose + 10% dialyzed FBS, 5.12 µM
[28] = RPMI 5 mM glucose + 10% dialyzed FBS, 15.4 µM
[29] = RPMI 5 mM glucose + 10% dialyzed FBS, 46.1 µM

CCN(CC)Cc1ccc2cc(COC(=O)Nc3ccc(C(=O)NO)cc3)ccc2c1 gave a cell viability (SEM cells [1]; [7]) of 108%, a cell viability (SEM cells [1]; [8]) of 121% and a cell viability (SEM cells [1]; [9]) of 127%. The cell viability (SEM cells [1]; [10]) was 138%, the cell viability (SEM cells [1]; [11]) was 129% and the cell viability (SEM cells [1]; [12]) was 138%. It also gave a cell viability (SEM cells [1]; [13]) of 118%, a cell viability (SEM cells [1]; [14]) of 59.1% and a cell viability (SEM cells [1]; [15]) of 3.07%. The cell viability (SEM cells [1]; [16]) was 2.21%, the cell viability (SEM cells [1]; [17]) was 3.97% and the “AUC of viability dose-response curve” value (NOMO1 [2]; HPLM + 10% dialyzed FBS) was 362. The “AUC of viability dose-response curve” value (NOMO1 [2]; RPMI 5 mM glucose + 10% FBS) was 372, the “AUC of viability dose-response curve” value (NOMO1 [2]; [18]) was 370 and the “AUC of viability dose-response curve” value (P12-Ichikawa [3]; HPLM + 10% dialyzed FBS) was 349. The “AUC of viability dose-response curve” value (P12-Ichikawa [3]; RPMI 5 mM glucose + 10% FBS) was 347, the “AUC of viability dose-response curve” value (P12-Ichikawa [3]; [18]) was 352 and the “AUC of viability dose-response curve” value (SEM cells [4]; HPLM + 10% dialyzed FBS) was 333. The “AUC of viability dose-response curve” value (SEM cells [4]; RPMI 5 mM glucose + 10% FBS) was 345 and the “AUC of viability dose-response curve” value (SEM cells [4]; [18]) was 339.

For C/C(=C\C(=O)Nc1ccccc1C(=O)O)c1ccc2ccccc2c1, the “AUC of viability dose-response curve” value (P12-Ichikawa [3]; HPLM + 10% dialyzed FBS) was 461, the “AUC of viability dose-response curve” value (P12-Ichikawa [3]; RPMI 5 mM glucose + 10% FBS) was 461 and the “AUC of viability dose-response curve” value (P12-Ichikawa [3]; [18]) was 456. The “AUC of viability dose-response curve” value (SEM cells [4]; HPLM + 10% dialyzed FBS) was 435, the “AUC of viability dose-response curve” value (SEM cells [4]; RPMI 5 mM glucose + 10% FBS) was 447 and the “AUC of viability dose-response curve” value (SEM cells [4]; [18]) was 463.

Molecule C[C@]12CCC(=O)C(O)=C1CC[C@@H]1[C@@H]2CC[C@]2(C)C(=O)CC[C@@H]12 has a cell viability (NOMO1 [5]; 0.000781 µM) of 123%, a cell viability (NOMO1 [5]; 0.00234 µM) of 114% and a cell viability (NOMO1 [5]; 0.00702 µM) of 105%. It also gave a cell viability (NOMO1 [5]; 0.0211 µM) of 123%, a cell viability (NOMO1 [5]; 0.0632 µM) of 129% and a cell viability (NOMO1 [5]; 0.19 µM) of 110%. It also gave a cell viability (NOMO1 [5]; 0.569 µM) of 128%, a cell viability (NOMO1 [5]; 1.71 µM) of 104% and a cell viability (NOMO1 [5]; 5.12 µM) of 107%. The cell viability (NOMO1 [5]; 15.4 µM) was 98.9%, the cell viability (NOMO1 [5]; 46.1 µM) was 95% and the cell viability (P12-Ichikawa [6]; [7]) was 122%. The cell viability (P12-Ichikawa [6]; [8]) was 125%, the cell viability (P12-Ichikawa [6]; [9]) was 122% and the cell viability (P12-Ichikawa [6]; [10]) was 119%. The cell viability (P12-Ichikawa [6]; [11]) was 119%, the cell viability (P12-Ichikawa [6]; [12]) was 122% and the cell viability (P12-Ichikawa [6]; [13]) was 128%. The cell viability (P12-Ichikawa [6]; [14]) was 117%, the cell viability (P12-Ichikawa [6]; [15]) was 120% and the cell viability (P12-Ichikawa [6]; [16]) was 111%. It also gave a cell viability (P12-Ichikawa [6]; [17]) of 104%, a cell viability (P12-Ichikawa [6]; [19]) of 112% and a cell viability (P12-Ichikawa [6]; [20]) of 124%. The cell viability (P12-Ichikawa [6]; [21]) was 132%, the cell viability (P12-Ichikawa [6]; [22]) was 121% and the cell viability (P12-Ichikawa [6]; [23]) was 121%. The cell viability (P12-Ichikawa [6]; [24]) was 115%, the cell viability (P12-Ichikawa [6]; [25]) was 130% and the cell viability (P12-Ichikawa [6]; [26]) was 126%. For the same molecule, the cell viability (P12-Ichikawa [6]; [27]) was 101%, the cell viability (P12-Ichikawa [6]; [28]) was 108% and the cell viability (P12-Ichikawa [6]; [29]) was 104%. It also gave a cell viability (SEM cells [1]; [7]) of 98.8%, a cell viability (SEM cells [1]; [8]) of 113% and a cell viability (SEM cells [1]; [9]) of 110%. For the same molecule, the cell viability (SEM cells [1]; [10]) was 114%, the cell viability (SEM cells [1]; [11]) was 120% and the cell viability (SEM cells [1]; [12]) was 117%. For the same molecule, the cell viability (SEM cells [1]; [13]) was 113%, the cell viability (SEM cells [1]; [14]) was 121% and the cell viability (SEM cells [1]; [15]) was 108%. For the same molecule, the cell viability (SEM cells [1]; [16]) was 101%, the cell viability (SEM cells [1]; [17]) was 104% and the cell viability (SEM cells [1]; RPMI 5 mM glucose + 10% FBS, 0.000781 µM) was 98.2%. For the same molecule, the cell viability (SEM cells [1]; RPMI 5 mM glucose + 10% FBS, 0.00234 µM) was 128%, the cell viability (SEM cells [1]; RPMI 5 mM glucose + 10% FBS, 0.00702 µM) was 123% and the cell viability (SEM cells [1]; RPMI 5 mM glucose + 10% FBS, 0.0211 µM) was 106%. For the same molecule, the cell viability (SEM cells [1]; RPMI 5 mM glucose + 10% FBS, 0.0632 µM) was 122%, the cell viability (SEM cells [1]; RPMI 5 mM glucose + 10% FBS, 0.19 µM) was 116% and the cell viability (SEM cells [1]; RPMI 5 mM glucose + 10% FBS, 0.569 µM) was 127%. For the same molecule, the cell viability (SEM cells [1]; RPMI 5 mM glucose + 10% FBS, 1.71 µM) was 111%, the cell viability (SEM cells [1]; RPMI 5 mM glucose + 10% FBS, 5.12 µM) was 103% and the cell viability (SEM cells [1]; RPMI 5 mM glucose + 10% FBS, 15.4 µM) was 114%. The cell viability (SEM cells [1]; RPMI 5 mM glucose + 10% FBS, 46.1 µM) was 112%, the cell viability (SEM cells [1]; [19]) was 119% and the cell viability (SEM cells [1]; [20]) was 120%. For the same molecule, the cell viability (SEM cells [1]; [21]) was 120%, the cell viability (SEM cells [1]; [22]) was 130% and the cell viability (SEM cells [1]; [23]) was 107%. The cell viability (SEM cells [1]; [24]) was 112%, the cell viability (SEM cells [1]; [25]) was 121% and the cell viability (SEM cells [1]; [26]) was 123%. For the same molecule, the cell viability (SEM cells [1]; [27]) was 107%, the cell viability (SEM cells [1]; [28]) was 116% and the cell viability (SEM cells [1]; [29]) was 111%. The “AUC of viability dose-response curve” value (NOMO1 [2]; HPLM + 10% dialyzed FBS) was 467, the “AUC of viability dose-response curve” value (NOMO1 [2]; RPMI 5 mM glucose + 10% FBS) was 454 and the “AUC of viability dose-response curve” value (NOMO1 [2]; [18]) was 462. For the same molecule, the “AUC of viability dose-response curve” value (P12-Ichikawa [3]; HPLM + 10% dialyzed FBS) was 468, the “AUC of viability dose-response curve” value (P12-Ichikawa [3]; RPMI 5 mM glucose + 10% FBS) was 455 and the “AUC of viability dose-response curve” value (P12-Ichikawa [3]; [18]) was 459. For the same molecule, the “AUC of viability dose-response curve” value (SEM cells [4]; HPLM + 10% dialyzed FBS) was 473, the “AUC of viability dose-response curve” value (SEM cells [4]; RPMI 5 mM glucose + 10% FBS) was 471 and the “AUC of viability dose-response curve” value (SEM cells [4]; [18]) was 460.
